[invAb] = inverted abasic unit; m = 2'-O-methyl; r = 2'-OH (RNA); f = 2'-fluoro
How the values were obtained:
mSCNN1A mRNA = assay: Screening of ENaCα siNAs in mouse NIH 3T3 cells (quantitative RT-PCR); format: cell-based; parameters: Percent Reduction of the mSCNN1A mRNA relative to a non-targeting control siNA / Mouse % KD (efficacy of ENaCα mRNA knockdown): concentration or dose not given beside the values; details: for Mean (mSCNN1A expression normalized to the level of m36B4) / Percent Reduction of the mSCNN1A mRNA relative to a non-targeting control siNA / Avg ENaCα Expression (mSCNN1A) / Avg 36B4 Expression: mouse NIH 3T3 cells, n = 3; for Mean (mSCNN1A expression normalized to the level of m36B4) / Percent Reduction of the mSCNN1A mRNA relative to a non-targeting control siNA / Avg 36B4 Expression: 24 hours post-transfection; for Avg ENaCα Expression (mSCNN1A): harvested 24 hours post-transfection; for Avg 36B4 Expression: housekeeping gene used for normalisation; for IC50 / Mouse % KD (efficacy of ENaCα mRNA knockdown): mouse cell line; for IC50: dose response, read-out: Mouse IC50 (potency of ENaCα mRNA knockdown); for Mouse % KD (efficacy of ENaCα mRNA knockdown): summary
Method in brief: (§1)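 Rat H-4-II-E and mouse NIH 3T3 cells transfected with siNA–Lipofectamine 2000 complexes (25 nM siNA final; dose-response at constant lipid), screened at 24 h. qRT-PCR with ENaCα signal normalized to GAPDH or 36B4; % knockdown relative to non-targeting control siNA, triplicates; IC50 from sigmoidal variable-slope fit.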

rSCNN1A (r ENaCα) mRNA = assay: Screening of ENaCα siNAs in Rat H-4-II-E cells (quantitative RT-PCR); format: cell-based; parameters: Percent Reduction of the r ENaCα mRNA relative to a non-targeting control siNA (NTCs) / Rat % KD (efficacy of ENaCα mRNA knockdown): concentration or dose not given beside the values; details: for Mean (rSCNN1A expression normalized to the level of rGAPDH) / Percent Reduction of the r ENaCα mRNA relative to a non-targeting control siNA (NTCs) / Avg ENaCα Expression (rSCNN1A) / Avg GAPDH Expression (rGAPDH): Rat H-4-II-E cells, n = 3; for Mean (rSCNN1A expression normalized to the level of rGAPDH) / Percent Reduction of the r ENaCα mRNA relative to a non-targeting control siNA (NTCs) / Avg GAPDH Expression (rGAPDH): 24 hours post-transfection; for Avg ENaCα Expression (rSCNN1A): harvested 24 hours post-transfection; for Avg GAPDH Expression (rGAPDH): housekeeping gene used for normalisation; for IC50 / Rat % KD (efficacy of ENaCα mRNA knockdown): rat cell line; for IC50: dose response, read-out: Rat IC50 (potency of ENaCα mRNA knockdown); for Rat % KD (efficacy of ENaCα mRNA knockdown): summary
Method in brief: as §1

Substance	Mean (mSCNN1A expression normalized to the level of m36B4) (mSCNN1A mRNA)	Percent Reduction of the mSCNN1A mRNA relative to a non-targeting control siNA (mSCNN1A mRNA) [%]	Avg ENaCα Expression (mSCNN1A) (mSCNN1A mRNA)	Avg 36B4 Expression (mSCNN1A mRNA)	Mean (rSCNN1A expression normalized to the level of rGAPDH) (rSCNN1A (r ENaCα) mRNA)	Percent Reduction of the r ENaCα mRNA relative to a non-targeting control siNA (NTCs) (rSCNN1A (r ENaCα) mRNA) [%]	Avg ENaCα Expression (rSCNN1A) (rSCNN1A (r ENaCα) mRNA)	Avg GAPDH Expression (rGAPDH) (rSCNN1A (r ENaCα) mRNA)	IC50 (mSCNN1A mRNA) [nM]	Mouse % KD (efficacy of ENaCα mRNA knockdown) (mSCNN1A mRNA) [%]	IC50 (rSCNN1A (r ENaCα) mRNA) [nM]	Rat % KD (efficacy of ENaCα mRNA knockdown) (rSCNN1A (r ENaCα) mRNA) [%]
B cuccuGuccAAccuGGGcA TTB / UGCccAGGuuGGAcAGGAGUU (sense CUCCUGUCCAACCUGGGCATT; antisense UGCCCAGGUUGGACAGGAGUU; siRNA; sense: DNA at AGT, 2'-fluoro at CU, [invAb] at 5' end, 3' end, backbone not given here; antisense: sugars from the 5' end rrrffmmmffmmmfmmmmmmm, backbone not given here) [Site 1738]	0.13	5.1	2.63	20.59	0.63	31.1	21.90	35.43	–	–	–	–
B uGGGcAGccAGuGGAGccu TTB / AGGcuccAcuGGcuGcccAUU (sense UGGGCAGCCAGUGGAGCCUTT; antisense AGGCUCCACUGGCUGCCCAUU; siRNA; sense: DNA at AGT, 2'-fluoro at CU, [invAb] at 5' end, 3' end, backbone not given here; antisense: sugars from the 5' end rrrffffmffmmffmfffmmm, backbone not given here) [Site 1751]	0.10	27.6	2.85	28.97	0.59	36.0	26.87	45.19	–	–	–	–
B uGGcuGuGccuAcAucuuc TTB / GAAGAuGuAGGcAcAGccAUU (sense UGGCUGUGCCUACAUCUUCTT; antisense GAAGAUGUAGGCACAGCCAUU; siRNA; sense: DNA at AGT, 2'-fluoro at CU, [invAb] at 5' end, 3' end, backbone not given here; antisense: sugars from the 5' end rrrmmfmfmmmfmfmmffmmm, backbone not given here) [Site 1386]	0.09	31.9	2.35	25.00	0.48	48.3	17.21	36.31	–	–	–	–
B uGuGGcuGuGccuAcAucu TTB / AGAuGuAGGcAcAGccAcAUU (sense UGUGGCUGUGCCUACAUCUTT; antisense AGAUGUAGGCACAGCCACAUU; siRNA; sense: DNA at AGT, 2'-fluoro at CU, [invAb] at 5' end, 3' end, backbone not given here; antisense: sugars from the 5' end rrrfmfmmmfmfmmffmfmmm, backbone not given here) [Site 1384]	0.14	−0.1	3.11	20.56	0.66	27.8	23.39	34.69	–	–	–	–
B uGuGcAAccAGAAcAAAuc TTB / GAUuuGuucuGGuuGcAcAUU (chain 1 UGUGCAACCAGAACAAAUCTT; chain 2 GAUUUGUUCUGGUUGCACAUU; siRNA; B caps on sense ends, letter-case modifications not given here, further chemistry not given here) [Site 782]	0.05	78.2	0.85	16.72	0.47	63.7	13.71	29.23	3.9	78	0.8	63
B uGuccAAccuGGGcAGccA TTB / UGGcuGcccAGGuuGGAcAUU (sense UGUCCAACCUGGGCAGCCATT; antisense UGGCUGCCCAGGUUGGACAUU; siRNA; sense: DNA at AGT, 2'-fluoro at CU, [invAb] at 5' end, 3' end, backbone not given here; antisense: sugars from the 5' end rrrffmfffmmmffmmmfmmm, backbone not given here) [Site 1742]	0.14	1.0	2.91	21.48	0.79	14.3	28.30	35.68	–	–	–	–
B uccuGuccAAccuGGGcAG TTB / CUGcccAGGuuGGAcAGGAUU (sense UCCUGUCCAACCUGGGCAGTT; antisense CUGCCCAGGUUGGACAGGAUU; siRNA; sense: DNA at AGT, 2'-fluoro at CU, [invAb] at 5' end, 3' end, backbone not given here; antisense: sugars from the 5' end rrrfffmmmffmmmfmmmmmm, backbone not given here) [Site 1739]	0.13	7.3	2.87	22.65	1.00	−8.7	32.26	35.80	–	–	–	–
B uuAuGGAuGAuGGuGGcuu TTB / AAGccAccAucAuccAuAAUU (sense UUAUGGAUGAUGGUGGCUUTT; antisense AAGCCACCAUCAUCCAUAAUU; siRNA; B caps on sense ends, letter-case modifications not given here, further chemistry not given here) [Site 1181]	0.04	84.4	0.54	15.48	0.41	68.1	10.34	24.78	4.1	84	1	68

From patent publication US20110288154A1, “RNA Interference Mediated Inhibition of Epithelial Sodium Channel (ENaC) Gene Expression Using Short Interfering Nucleic Acid (siNA)” (MERCK & CO., INC., priority 2008, published 2011)
